PubChem BioAssay AID1963834 (Molecular Pharmacology Branch, DTP, NCI, 2024)

System: 873145-292-R-J1-PDC complex spheroid viability
Test: Anticancer human tumor 873145-292-R-J1-PDC patient-derived renal clear cell carcinoma cell line growth inhibition [POLQ]
Details: for IC50: curve of first compound; for viability, T/C: stronger effect = lower value
Summary of the method: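 Patient-derived tumour cells were co-cultured with HUVEC and mesenchymal stem cells as multicellular spheroids at 37 °C. They were treated with POLQ inhibitors (novobiocin, ART-558, RP6685) alone or combined with other agents. Top concentrations were at or near clinical Cmax (otherwise 10 microM; SN-38 at 1 microM), decreasing in half-log steps.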

[1] = second compound 0.0316 µM, first compound 0.0316 µM
[2] = second compound 0.0316 µM, first compound 0.1 µM
[3] = second compound 0.0316 µM, first compound 0.316 µM
[4] = second compound 0.0316 µM, first compound 1 µM
[5] = second compound 0.0316 µM, first compound 3.16 µM
[6] = second compound 0.0316 µM, first compound 10 µM
[7] = second compound 0.1 µM, first compound 0.0316 µM
[8] = second compound 0.1 µM, first compound 0.1 µM
[9] = second compound 0.1 µM, first compound 0.316 µM
[10] = second compound 0.1 µM, first compound 1 µM
[11] = second compound 0.1 µM, first compound 3.16 µM
[12] = second compound 0.1 µM, first compound 10 µM
[13] = second compound 0.316 µM, first compound 0.0316 µM
[14] = second compound 0.316 µM, first compound 0.1 µM
[15] = second compound 0.316 µM, first compound 0.316 µM
[16] = second compound 0.316 µM, first compound 1 µM
[17] = second compound 0.316 µM, first compound 3.16 µM
[18] = second compound 0.316 µM, first compound 10 µM
[19] = second compound 1 µM, first compound 0.0316 µM
[20] = second compound 1 µM, first compound 0.1 µM
[21] = second compound 1 µM, first compound 0.316 µM
[22] = second compound 1 µM, first compound 1 µM
[23] = second compound 1 µM, first compound 3.16 µM
[24] = second compound 1 µM, first compound 10 µM
[25] = second compound 3.16 µM, first compound 0.0316 µM
[26] = second compound 3.16 µM, first compound 0.1 µM
[27] = second compound 3.16 µM, first compound 0.316 µM
[28] = second compound 3.16 µM, first compound 1 µM
[29] = second compound 3.16 µM, first compound 3.16 µM
[30] = second compound 3.16 µM, first compound 10 µM
[31] = second compound 10 µM, first compound 0.0316 µM
[32] = second compound 10 µM, first compound 0.1 µM
[33] = second compound 10 µM, first compound 0.316 µM
[34] = second compound 10 µM, first compound 1 µM
[35] = second compound 10 µM, first compound 3.16 µM
[36] = second compound 10 µM, first compound 10 µM
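Note: spheroids exposed to compounds for 7 days before viability readout.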
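Throughout, for viability, T/C: luminescence signal used as surrogate for viable cell content; 100% = DMSO vehicle control viability.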

Q: Which results are given for C=CC(=O)N1CCN(c2nc(=O)n(-c3c(C)ccnc3C(C)C)c3nc(-c4c(O)cccc4F)c(F)cc23)C(C)C1 (stereo unspecified) + COC1C(OC(N)=O)C(O)C(Oc2ccc3c(O)c(NC(=O)c4ccc(O)c(CC=C(C)C)c4)c(=O)oc3c2C)OC1(C)C?
A: IC50 (second compound 0.0316 µM): > 10 µM; IC50 (second compound 0.1 µM): > 10 µM; IC50 (second compound 0.316 µM): > 10 µM; IC50 (second compound 1 µM): > 10 µM; IC50 (second compound 3.16 µM): > 10 µM; IC50 (second compound 10 µM): > 10 µM; viability, T/C [1]: 102%; viability, T/C [2]: 97.9%; viability, T/C [3]: 110%; viability, T/C [4]: 114%; viability, T/C [5]: 119%; viability, T/C [6]: 130%; viability, T/C [7]: 98.7%; viability, T/C [8]: 99.6%; viability, T/C [9]: 91.5%; viability, T/C [10]: 111%; viability, T/C [11]: 114%; viability, T/C [12]: 114%; viability, T/C [13]: 102%; viability, T/C [14]: 97%; viability, T/C [15]: 118%; viability, T/C [16]: 113%; viability, T/C [17]: 138%; viability, T/C [18]: 119%; viability, T/C [19]: 94.5%; viability, T/C [20]: 94%; viability, T/C [21]: 105%; viability, T/C [22]: 104%; viability, T/C [23]: 120%; viability, T/C [24]: 126%; viability, T/C [25]: 92.4%; viability, T/C [26]: 92.7%; viability, T/C [27]: 105%; viability, T/C [28]: 113%; viability, T/C [29]: 126%; viability, T/C [30]: 121%; viability, T/C [31]: 99.7%; viability, T/C [32]: 109%; viability, T/C [33]: 113%; viability, T/C [34]: 116%; viability, T/C [35]: 111%; viability, T/C [36]: 125%

Q: With CC(C)n1c(=O)n(C)c2cnc3cc(F)c(-c4ccc(OCCCN5CCCCC5)nc4)cc3c21 + COC1C(OC(N)=O)C(O)C(Oc2ccc3c(O)c(NC(=O)c4ccc(O)c(CC=C(C)C)c4)c(=O)oc3c2C)OC1(C)C as the molecule, how does the IC50 (second compound 0.0316 µM) read?
A: Its IC50 is greater than 10 µM.

Q: And the IC50 (second compound 0.1 µM)?
A: The IC50 was greater than 10 µM.

Q: What about the IC50 (second compound 0.316 µM) of the same molecule?
A: Its IC50 is greater than 10 µM.

Q: What about the IC50 (second compound 1 µM) of the same molecule?
A: The IC50 was greater than 10 µM.

Q: What about the IC50 (second compound 3.16 µM) of the same molecule?
A: The IC50 was greater than 10 µM.

Q: And the IC50 (second compound 10 µM)?
A: Its IC50 is greater than 10 µM.

Q: And the viability, T/C [1]?
A: Its viability, T/C is 96%.

Q: And the viability, T/C [2]?
A: Its viability, T/C is 93%.

Q: And the viability, T/C [3]?
A: Its viability, T/C is 99.2%.

Q: And the viability, T/C [4]?
A: Its viability, T/C is 105%.

Q: And the viability, T/C [5]?
A: The viability, T/C was 92.8%.

Q: What about the viability, T/C [6] of the same molecule?
A: The viability, T/C was 82.5%.

Q: What about the viability, T/C [7] of the same molecule?
A: Its viability, T/C is 94%.

Q: And the viability, T/C [8]?
A: Its viability, T/C is 96.7%.

Q: What about the viability, T/C [9] of the same molecule?
A: The viability, T/C was 92.9%.

Q: And the viability, T/C [10]?
A: Its viability, T/C is 90%.

Q: And the viability, T/C [11]?
A: The viability, T/C was 100%.

Q: What about the viability, T/C [12] of the same molecule?
A: The viability, T/C was 90.8%.

Q: What about the viability, T/C [13] of the same molecule?
A: Its viability, T/C is 95.5%.

Q: What about the viability, T/C [14] of the same molecule?
A: The viability, T/C was 98.9%.

Q: And the viability, T/C [15]?
A: The viability, T/C was 109%.

Q: What about the viability, T/C [16] of the same molecule?
A: The viability, T/C was 87.3%.

Q: What about the viability, T/C [17] of the same molecule?
A: The viability, T/C was 104%.

Q: And the viability, T/C [18]?
A: Its viability, T/C is 78.9%.

Q: And the viability, T/C [19]?
A: The viability, T/C was 105%.

Q: What about the viability, T/C [20] of the same molecule?
A: Its viability, T/C is 106%.

Q: And the viability, T/C [21]?
A: Its viability, T/C is 92.9%.

Q: And the viability, T/C [22]?
A: Its viability, T/C is 94.1%.

Q: What about the viability, T/C [23] of the same molecule?
A: The viability, T/C was 90.8%.

Q: What about the viability, T/C [24] of the same molecule?
A: The viability, T/C was 82.7%.

Q: And the viability, T/C [25]?
A: Its viability, T/C is 96%.

Q: And the viability, T/C [26]?
A: The viability, T/C was 104%.

Q: And the viability, T/C [27]?
A: The viability, T/C was 98.7%.

Q: And the viability, T/C [28]?
A: Its viability, T/C is 91.7%.

Q: What about the viability, T/C [29] of the same molecule?
A: Its viability, T/C is 90.5%.

Q: What about the viability, T/C [30] of the same molecule?
A: The viability, T/C was 86.9%.

Q: And the viability, T/C [31]?
A: The viability, T/C was 96.2%.

Q: What about the viability, T/C [32] of the same molecule?
A: The viability, T/C was 91.1%.

Q: What about the viability, T/C [33] of the same molecule?
A: The viability, T/C was 104%.

Q: What about the viability, T/C [34] of the same molecule?
A: The viability, T/C was 90.5%.

Q: And the viability, T/C [35]?
A: The viability, T/C was 107%.

Q: What about the viability, T/C [36] of the same molecule?
A: The viability, T/C was 88.7%.

Q: How did the IC50 (second compound 0.0316 µM) turn out when CC1COCCN1c1cc(-c2ccnn2C)c2ccnc(-c3ccn[nH]3)c2n1 (stereo unspecified) + COC1C(OC(N)=O)C(O)C(Oc2ccc3c(O)c(NC(=O)c4ccc(O)c(CC=C(C)C)c4)c(=O)oc3c2C)OC1(C)C was run?
A: Its IC50 is 1.52 µM.

Q: What about the IC50 (second compound 0.1 µM) of the same molecule?
A: The IC50 was 0.986 µM.

Q: And the IC50 (second compound 0.316 µM)?
A: The IC50 was 1.21 µM.

Q: What about the IC50 (second compound 1 µM) of the same molecule?
A: The IC50 was 0.864 µM.

Q: What about the IC50 (second compound 3.16 µM) of the same molecule?
A: Its IC50 is 0.952 µM.

Q: And the IC50 (second compound 10 µM)?
A: The IC50 was 0.948 µM.

Q: And the viability, T/C [1]?
A: The viability, T/C was 86.7%.

Q: What about the viability, T/C [2] of the same molecule?
A: Its viability, T/C is 80.9%.

Q: And the viability, T/C [3]?
A: The viability, T/C was 68.6%.

Q: And the viability, T/C [4]?
A: Its viability, T/C is 54.8%.

Q: And the viability, T/C [5]?
A: The viability, T/C was 42.2%.

Q: What about the viability, T/C [6] of the same molecule?
A: Its viability, T/C is 38.5%.

Q: And the viability, T/C [7]?
A: Its viability, T/C is 94.1%.

Q: And the viability, T/C [8]?
A: Its viability, T/C is 83.4%.

Q: And the viability, T/C [9]?
A: The viability, T/C was 70%.

Q: What about the viability, T/C [10] of the same molecule?
A: Its viability, T/C is 47.1%.

Q: What about the viability, T/C [11] of the same molecule?
A: Its viability, T/C is 43.8%.

Q: And the viability, T/C [12]?
A: The viability, T/C was 47.3%.

Q: And the viability, T/C [13]?
A: The viability, T/C was 94.2%.

Q: And the viability, T/C [14]?
A: Its viability, T/C is 76.3%.

Q: What about the viability, T/C [15] of the same molecule?
A: Its viability, T/C is 63.7%.

Q: What about the viability, T/C [16] of the same molecule?
A: Its viability, T/C is 51.6%.

Q: And the viability, T/C [17]?
A: The viability, T/C was 41.2%.

Q: And the viability, T/C [18]?
A: The viability, T/C was 45.1%.

Q: And the viability, T/C [19]?
A: Its viability, T/C is 92.5%.

Q: And the viability, T/C [20]?
A: The viability, T/C was 80.9%.

Q: And the viability, T/C [21]?
A: Its viability, T/C is 63.4%.

Q: And the viability, T/C [22]?
A: The viability, T/C was 47.6%.

Q: What about the viability, T/C [23] of the same molecule?
A: Its viability, T/C is 42.1%.

Q: What about the viability, T/C [24] of the same molecule?
A: The viability, T/C was 42.3%.

Q: And the viability, T/C [25]?
A: The viability, T/C was 85.1%.

Q: What about the viability, T/C [26] of the same molecule?
A: The viability, T/C was 79.8%.

Q: What about the viability, T/C [27] of the same molecule?
A: Its viability, T/C is 66.8%.

Q: What about the viability, T/C [28] of the same molecule?
A: The viability, T/C was 49.9%.

Q: What about the viability, T/C [29] of the same molecule?
A: The viability, T/C was 38.3%.

Q: What about the viability, T/C [30] of the same molecule?
A: The viability, T/C was 38.1%.

Q: What about the viability, T/C [31] of the same molecule?
A: Its viability, T/C is 93%.

Q: What about the viability, T/C [32] of the same molecule?
A: Its viability, T/C is 82.8%.

Q: What about the viability, T/C [33] of the same molecule?
A: Its viability, T/C is 67.2%.

Q: What about the viability, T/C [34] of the same molecule?
A: The viability, T/C was 47.6%.

Q: And the viability, T/C [35]?
A: The viability, T/C was 43.7%.

Q: And the viability, T/C [36]?
A: The viability, T/C was 41.8%.
